For orientation: IC50 means the concentration that inhibits the measured activity by half. The stoichiometry N is the number of molecules, sites or subunits per partner or assembly.

This is an account of results in publication PMC9120478 (Nature Communications, 2022).

For one data set, the target named is T1, F666A mutant TRPV3 (Mus musculus, UniProt Q8K424, F666A).
T1 construct: expressed in transfected cells; host or cells: HEK 293 S GnTI- cells (baculovirus transduction)
T1 sequence (Q8K424 1-791 F666A): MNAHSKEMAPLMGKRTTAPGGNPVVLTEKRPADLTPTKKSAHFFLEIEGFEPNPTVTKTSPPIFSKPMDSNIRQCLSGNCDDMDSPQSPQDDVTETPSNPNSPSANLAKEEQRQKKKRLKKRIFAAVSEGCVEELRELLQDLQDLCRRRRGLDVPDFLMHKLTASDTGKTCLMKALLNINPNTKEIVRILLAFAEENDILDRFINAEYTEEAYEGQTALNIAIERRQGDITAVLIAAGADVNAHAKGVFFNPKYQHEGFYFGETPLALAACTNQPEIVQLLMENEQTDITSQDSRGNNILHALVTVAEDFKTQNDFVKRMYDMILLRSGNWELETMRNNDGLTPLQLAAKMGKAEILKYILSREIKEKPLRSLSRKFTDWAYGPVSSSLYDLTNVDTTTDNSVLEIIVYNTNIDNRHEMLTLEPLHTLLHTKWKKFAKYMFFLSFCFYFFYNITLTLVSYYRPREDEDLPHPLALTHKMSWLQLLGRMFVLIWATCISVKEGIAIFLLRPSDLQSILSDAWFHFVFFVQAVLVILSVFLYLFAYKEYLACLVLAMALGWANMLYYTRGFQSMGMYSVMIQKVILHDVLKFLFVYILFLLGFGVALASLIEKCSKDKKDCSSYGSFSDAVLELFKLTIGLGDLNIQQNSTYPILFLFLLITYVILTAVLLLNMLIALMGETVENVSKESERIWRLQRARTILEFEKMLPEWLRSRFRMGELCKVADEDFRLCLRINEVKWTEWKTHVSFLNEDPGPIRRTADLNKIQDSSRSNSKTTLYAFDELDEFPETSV
In words: Fura-2 ratiometric Ca2+ uptake, inhibition of 2-APB-evoked response. The format is cell-based. Particulars: for F340/F380 change normalized to maximal value in the absence of osthole: F666A. As to the method: GFP-free C-terminally strep-tagged wild-type TRPV3, TRPV3-Y564A, TRPV3-Y594A, TRPV3-F633A, TRPV3-I663W, and TRPV3-F666A were expressed in HEK 293 S GnTI^− cells as previously described[41],[42],[53]. In short, 48 h after transduction, 1-ml aliquots of cell suspension were collected by centrifugation at 550 g for 5 min using an Eppendorf 5424 centrifuge. The cells were resuspended in the pre-warmed modified HEPES-buffered saline (HBS) containing 118 mM NaCl, 4.8 mM KCl, 1 mM MgCl2, 5 mM D-glucose, and 10 mM HEPES pH 7.4 and 5 μg/ml Fura-2 AM (Thermo Fisher Scientific) and incubated for 45 min at 37 °C. The Fura-2-loaded cells were then centrifuged for 5 min at 550 g, resuspended in the pre-warmed, modified HBS and incubated again for 30 min at 37 °C in the dark. The cells were subsequently pelleted and washed twice in the modified HBS. The washed cell pellets were kept on ice in the dark before taking an aliquot for fluorescence measurements. […] We used the lower CaCl2 concentration than before[42],[28] (2.5 mM) to minimize non-specific effects, which often appeared as a drift in the Fura-2 signal at high Ca^2+ concentration, presumably due to cell death as a result of calcium overload. Fluorescence measurements were conducted using a QuantaMaster 40 spectrofluorometer (Photon Technology International) at room temperature in a quartz cuvette under constant stirring. After 60 s since the beginning, the recording was paused and 2-APB was added. After the addition of 2-APB, the recording was continued for the additional 140 s. Changes in intracellular Ca^2+ were measured by taking the ratio of fluorescence emitted at 510 nm at the excitation wavelength of 340 nm and 380 nm. […] The data were processed using Origin 9.0 (OriginLab) software.

For the next data set, the target named is T2, wild-type mouse TRPV3 (Mus musculus, UniProt Q8K424).
T2 construct: expressed in transfected cells; host or cells: HEK 293 S GnTI- cells (baculovirus transduction)
T2 sequence (Q8K424 1-791): T1 sequence (Q8K424 1-791 F666A) with A666F
The conditions noted are these: cited from earlier work; for F340/F380 change normalized to maximal value in the absence of osthole: WT, published before.

Data set [1] concerns the molecule itself. In words: cryo-EM structure; TRPV3 reconstituted in cNW30 nanodiscs with soybean lipids; 150 mM NaCl, 20 mM Tris pH 8.0, 1 mM βME, 100 μM dyclonine plus 100 μM more before freezing; C4 symmetry, 3.16 Å.
Setting [2] is: osthole Conc 1, single experiments.

Residue numbers refer to the chain shown, from its start. Where “and” joins values, the source holds several entries; their conditions need not be identical. Equal entries are not always repeated. Where two headings read alike, the source gives them in different places.

`COc1ccc2ccc(=O)oc2c1CC=C(C)C` [osthole]: the “F340/F380 change normalized to maximal value in the absence of osthole” value (from here on “F340/F380 change normalized”) is 1.064 and 1.053 and 0.962 at F666A mutant TRPV3 (setting [2]); 0.8581 and 0.9473 and 0.9415 at F666A mutant TRPV3 (osthole Conc 3, single experiments); 0.7679 and 0.9394 and 0.7809 on F666A mutant TRPV3 (osthole Conc 10, single experiments); 0.5836 and 0.4944 and 0.6286 on F666A mutant TRPV3 (osthole Conc 30, single experiments); 0.1362 and 0.1904 on F666A mutant TRPV3 (osthole Conc 100, single experiments); 0.9502 and 0.9764 and 1.106 at wild-type mouse TRPV3 (setting [2]). The “F340/F380 change normalized” value on wild-type mouse TRPV3 (osthole Conc 2.5, single experiments) is 0.949 and 1.067; at wild-type mouse TRPV3 (osthole Conc 5, single experiments), 0.9795 and 0.8169 and 0.895; on wild-type mouse TRPV3 (osthole Conc 8, single experiments) it was 0.9193 and 0.8591 and 0.9872; at wild-type mouse TRPV3 (osthole Conc 12.5, single experiments), 0.6517 and 0.6914 and 0.735; on wild-type mouse TRPV3 (osthole Conc 18, single experiments), 0.5621 and 0.5685 and 0.5403; at wild-type mouse TRPV3 (osthole Conc 25, single experiments), 0.4148 and 0.5672 and 0.4994. The “F340/F380 change normalized” value at wild-type mouse TRPV3 (osthole Conc 50, single experiments) is 0.161 and 0.164 and 0.15 and 0.2574. The IC50 against F666A mutant TRPV3 (HEK 293 GnTI- cells, 200 µM 2-APB after pre-incubation with inhibitor, n = 3) is 33.1 ± 3.8 µM; on wild-type mouse TRPV3 (n = 4, published before, read-out: IC50, inhibition of wild-type TRPV3 by osthole), 20.5 ± 0.5 µM. On F666A mutant TRPV3 (logistic fit, n = 3), the “nHill of inhibition curve, F666A” value came out at 1.37 ± 0.19. Moreover, on wild-type mouse TRPV3 (n = 4, published before), the “nHill of osthole inhibition curve, wild-type TRPV3” value is 1.84 ± 0.14.

B1: Mouse TRPV3 (vanilloid-subfamily member 3 TRP channel) (natural protein)
chain: AHSKEMAPLMGKRTTAPGGNPVVLTEKRPADLTPTKKSAHFFLEIEGFEPNPTVTKTSPPIFSKPMDSNIRQCLSGNCDDMDSPQSPQDDVTETPSNPNSPSANLAKEEQRQKKKRLKKRIFAAVSEGCVEELRELLQDLQDLCRRRRGLDVPDFLMHKLTASDTGKTCLMKALLNINPNTKEIVRILLAFAEENDILDRFINAEYTEEAYEGQTALNIAIERRQGDITAVLIAAGADVNAHAKGVFFNPKYQHEGFYFGETPLALAACTNQPEIVQLLMENEQTDITSQDSRGNNILHALVTVAEDFKTQNDFVKRMYDMILLRSGNWELETMRNNDGLTPLQLAAKMGKAEILKYILSREIKEKPLRSLSRKFTDWAYGPVSSSLYDLTNVDTTTDNSVLEIIVYNTNIDNRHEMLTLEPLHTLLHTKWKKFAKYMFFLSFCFYFFYNITLTLVSYYRPREDEDLPHPLALTHKMSWLQLLGRMFVLIWATCISVKEGIAIFLLRPSDLQSILSDAWFHFVFFVQAVLVILSVFLYLFAYKEYLACLVLAMALGWANMLYYTRGFQSMGMYSVMIQKVILHDVLKFLFVYILFLLGFGVALASLIEKCSKDKKDCSSYGSFSDAVLELFKLTIGLGDLNIQQNSTYPILFLFLLITYVILTFVLLLNMLIALMGETVENVSKESERIWRLQRARTILEFEKMLPEWLRSRFRMGELCKVADEDFRLCLRINEVKWTEWKTHVSFLNEDPGPIRRTADLNKIQDSSRSNSKTTLYAFDELDEFPETSV
notes: TRPV3, mouse; model built for residues 118-756, leaving out 462-470 and 611-621
Take B1: the “stoichiometry N” value in data set [1] came to 4.
